Experiment: Photochromic characteristics of cast polymethyl methacrylate film (coloration under mercury lamp, fading)
Assay type: physicochemical
Details: PMMA film, 1.0×10^-4 mol/g, 0.1 mm, 35° C.; for t1/2 (half-value period of absorbance after irradiation): after 60 seconds' irradiation; for λ max (maximum absorption wavelength of the colored film) / ε (60 seconds)-ε (0 second): mercury lamp 60 seconds; for ε (60 seconds)-ε (0 second): absorbance at λmax
Method: The compound synthesized in Example 1, which was represented by the following formula: [drawing 286] was dissolved and dispersed in polymethyl methacrylate with the aid of benzene, and a cast film was prepared on a slide glass sheet (11.2 cm×3.7 cm) so that the concentration of the compound in the film was 1.0×10^-4 mol/g and the thickness of the film was 0.1 mm. The photochromic film was irradiated with rays of a mercury lamp (SHL-100 supplied by Toshiba) located 10 cm apart from the film at 35° C.+1° C. for 60 seconds to effect coloration in the film, and the photochromic characteristics were examined with respect to items described below.
Maximum absorption wavelength (λmax):
The maximum absorption wavelength λmax of the colored film was determined by using a spectrophotometer (220 A supplied by Hitachi).
After 60 seconds' irradiation under the above-mentioned conditions, the absorbance at the maximum absorption wavelength was measured.
The absorbance at the maximum absorption wavelength of the unirradiated film was measured. Half-value period t^1/2 :
After 60 seconds' irradiation, the time required for reduction of the absorbance of the film to 1/2 of [ε(60 seconds)-ε(0 second)] was measured.

SMILES	t1/2 (half-value period of absorbance after irradiation) [s]	λ max (maximum absorption wavelength of the colored film)	ε (60 seconds)-ε (0 second)
CN1c2ccccc2C2(CC3CCC2C3)C12C=Nc1ccc3cccnc3c1O2 (stereo not drawn) [Compound 2]	18	603	1.4
CN(C)c1cc2c(c3ccccc13)OC1(C=N2)N(C)c2ccccc2C12CC1CCC2C1 (stereo not drawn) [Compound 3]	18	603	1.3
CCCN1c2ccc(C(F)(F)F)cc2C2(C3CC4CC(C3)CC2C4)C12C=Nc1ccc3ccccc3c1O2 (stereo not drawn) [Compound 4]	18	605	1.4
CCC1(CC)c2cc(O)cnc2N(C)C12C=Nc1ccc3ncccc3c1O2 (stereo not drawn) [Compound 5]	16	598	1.7
N#Cc1cnc2ccc3c(c2c1)OC1(C=N3)N(CCc2ccccc2)c2ccccc2C12CCCCC2 (stereo not drawn) [Compound 7]	18	601	1.8
CN1c2cc3occc3cc2C2(CC3CCC2C3)C12C=Nc1ccc3ccccc3c1O2 (stereo not drawn) [Compound 8]	18	603	1.4
CN1c2ccc(Cl)cc2C2(C3CC4CC(C3)CC2C4)C12C=Nc1cc(N3CCCCC3)c3ncccc3c1O2 (stereo not drawn) [Compound 9]	17	605	1.2
COC(=O)CN1c2ccc(N(C)C)cc2C2(CCCCC2)C12C=Nc1cc(Br)c3ccccc3c1O2 (stereo not drawn) [Compound 11]	17	607	1.3
COC(=O)CCCCN1c2cc3[nH]ccc3cc2C2(CC3CCC2C3)C12C=Nc1cc(-c3ccccc3)c3ncccc3c1O2 (stereo not drawn) [Compound 13]	18	607	1.4
COC(=O)CN1c2cc3ccc([N+](=O)[O-])cc3cc2C2(CC3CCC2C3)C12C=Nc1c(C(F)(F)F)cc3ncccc3c1O2 (stereo not drawn) [Compound 14]	16	606	1.4
CN1c2cc3ncc(-c4ccsc4)cc3cc2C2(C3CC4CC(C3)CC2C4)C12C=Nc1ccc3ccccc3c1O2 (stereo not drawn) [Compound 15]	16	607	1.3
COc1cc2c(c3ccccc13)OC1(C=N2)N(c2ccccc2)c2ccccc2C12CCCC2 (stereo not drawn) [Compound 16]	17	606	1.2
N#CCN1c2[nH]ccc2C2(CCCCCC2)C12C=Nc1cc(C#N)c3ccccc3c1O2 (stereo not drawn) [Compound 17]	18	606	1.4
COc1ccc2c(c1)C1(CCCCC1)C1(C=Nc3ccc4cc5[nH]ccc5cc4c3O1)N2C (stereo not drawn) [Compound 19]	17	607	1.2
COC(=O)c1cc2c(c3cc[nH]c13)OC1(C=N2)N(C)c2[nH]ccc2C12CCCCC2 (stereo not drawn) [Compound 20]	17	603	1.4
CN1c2ccc([N+](=O)[O-])cc2C2(CCCCC2)C12C=Nc1ccc3ccccc3c1O2 (stereo not drawn) [Compound 21]	18	610	1.2
CCCCN1c2cc(CC)ccc2C2(CC3CCC2C3)C12C=Nc1c(N)cc3occc3c1O2 (stereo not drawn) [Compound 23]	19	605	1.2
